Assays:
MIA PaCa-2 cells [1] = experiment: Seahorse XF Real-Time ATP Rate Assay (FIG. 8A); type: cell-based; details: 6 h romidepsin then 12 h washout with or without 2 nM DMPatA
Procedure: FIG. 8A compares quantification of ATP production rates. Seahorse XF Real-Time ATP Rate Assay was performed under control conditions or after treatment with the combination and single agents. Treatment was for a total of 18 h (i.e., 6-hour romidepsin followed by 12-hour washout with 2 nM DMPatA (combo) or without (Romi alone)). FIG. 8A left panel—ATP production rate from mitochondrial respiration (Mito-ATP); FIG. 8A right panel—ATP production rate from glycolysis (Glyco-ATP). At least two biological replicate experiments with n=3 technical replicates were performed. Statistical significance was determined by one-way ANOVA using Tukey multiple comparison's test in the Prism software. *p value<0.01.
(§1) Because reprograming/augmentation of cellular metabolism by c-MYC is known to support oncogenesis, the Seahorse XF analyzer was used to assess the impact of the treatments on c-MYC-driven metabolism including ATP production, glycolysis, and mitochondrial oxidative phosphorylation (OXPHOS). Extracellular acidification rates, also known as proton efflux rate (PER), were measured for glycolysis and mitochondrial oxygen consumption rates (OCR) for OXPHOS. […]
Oxygen consumption rates (OCR) and extracellular acidification rates (ECAR) were measured using the XF96 Extracellular Flux analyzer (Seahorse Bioscience). […]

MIA PaCa-2 cells [2] = experiment: Glutamine consumption/rescue of mitochondrial function (ΔOCR) (FIG. 8C right); type: cell-based; details: cells starved of glucose, glutamine and pyruvate 1 h, then glutamine
Procedure: FIG. 8C left panel presents the results of metabolic flux analysis showing basal mitochondrial respiration (OXPHOS) (oxygen consumption rate, OCR) in MIA PaCa-2 cells following treatment with combinations or single drugs. Treatment was for a total of 18 h, as mentioned in FIG. 8A. Statistical significance was determined by one-way ANOVA, ***p value<0.001, *p value<0.01. FIG. 8C right panel presents the results of quantification of glutamine consumption. Cells were treated as mentioned in FIG. 8A. Prior to the metabolic measurements cells were starved of glucose, glutamine, and pyruvate for 1-hour after which glutamine was added and response was recorded as ΔOCR (i.e. OCR before and after glutamine addition). Statistical significance was determined by one-way ANOVA, ****p value<0.0001, ***p value<0.0005.
as §1, with “OXPHOS. We utilized the 6 h exposure followed by 18 h washout strategy for romidepsin described earlier.” for “OXPHOS.”

MIA PaCa-2 and KLM cells = experiment: RNA-seq gene expression analysis (FIG. 9A); type: cell-based
Procedure: Plots show a significant increase in the overall gene expression in the cells treated with the combination. Cells treated for a total of 18 h (i.e., 6-hour romidepsin followed by 12-hour incubation with 2 nM DMPatA (combo) or without (Romi alone)).
To gain further insight into the effects of the combination treatment gene expression was profiled in MIA PaCa-2 and KLM cells treated with vehicle, the single agents, or the combination for a total of 18 h (i.e., 6-hour romidepsin treatment followed by 12-hour washout with 2 nM DMPatA or without), probing whether alterations observed following combination treatment could be explained by changes in gene expression.
Total RNA was extracted using RNeasy mini kit (Qiagen) from cells collected after 18 hours (6 hours romidepsin (15 nM)+12 hours washout with or without DMPatA (2 nM)) incubation with or without drugs. RNA quantitation and quality were assessed by the Agilent Bioanalyzer 2100 at the Molecular Pathology Shared Resource of the Herbert Irving Comprehensive Cancer Center at Columbia University (mBank). RNA library preparation and sequencing was performed at Columbia University's Sulzberger Genome Center. Briefly, poly-A pull-down was used to enrich mRNAs from total RNA samples, followed by library construction using Illumina TruSeq chemistry. Libraries were then sequenced using Illumina NovaSeq 6000. For the DESeq2 (v 1.40.2) analysis the data were imported with tximport in DESeq2 and a dds object was generated. Variance stabilizing transformation was used on the object and the output was used for the heatmap and PCA plots. Abundance of transcripts was estimated by pseudoalignment using kallisto, and downstream analysis was performed using R (v4.3.1) and the indicated packages. […] Differentially expressed genes were determined using linear regression method (limma v3.56.2), and genes with |log 2FC|≥1 and adjusted p-value <0.05 were plotted accordingly on volcano plots and heatmap (ggplot2 v3.5.0 and ComplexHeatmap v2.16.0). […]

cells = details: 50 nM, 6-hour exposure; cited from earlier work

C/C=C1\NC(=O)[C@H]2CSSCC/C=C/[C@H](CC(=O)N[C@H](C(C)C)C(=O)N2)OC(=O)[C@H](C(C)C)NC1=O [romidepsin]
glycolytic ATP production (Glyco-ATP) (MIA PaCa-2 cells [1]): reduced
mitochondrial ATP production (Mito-ATP) (MIA PaCa-2 cells [1]): reduced
glutamine rescue of mitochondrial function (ΔOCR) (MIA PaCa-2 cells [2]): impaired glutamine rescue of mitochondrial function
change in gene expression (MIA PaCa-2 and KLM cells; romidepsin 15 nM 6 h, with or without DMPatA 2 nM): only a modest increase in gene expression
number of differentially expressed genes (DEGs) (MIA PaCa-2 and KLM cells; total 18 h (6 h romidepsin 15 nM + 12 h with/without DMPatA 2 nM), |log2FC|≥1, adjusted p<0.05): 1551 DEGs
susceptibility of cells to romidepsin (cells): Only a subset of cells susceptible
